Laboratory results: article PMC7845594, “Novel Immune Modulators Enhance Caenorhabditis elegans Resistance to Multiple Pathogens” (mSphere, 2021)

System: C. elegans transcriptome
Test: Transcriptome profiling (Affymetrix microarrays), differentially expressed genes
Assay type: in vivo, Caenorhabditis elegans
Conditions: downregulated genes
Outline: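 Wild-type young-adult C. elegans (~6,000 per condition, triplicate) were exposed to each drug at 100 µM or to DMSO for 8 h without pathogen. TRIzol/RNeasy RNA was profiled on Affymetrix arrays. Fold changes were normalized to each gene's mean across conditions and clustered by Euclidean distance with average linkage.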

CCN(CC)/N=N/c1ccc(C(=O)O)cc1 [LK35]
Fold Change (Gene C27H5.4, Affy_ID 181334_s_at): 0.3156 | Fold Change (Gene C29F4.2, Affy_ID 190884_at): 0.3931 | Fold Change (Gene C32E8.7, Affy_ID 188220_at): 0.2903 | Fold Change (Gene C33F10.9, Affy_ID 172834_x_at): 0.1897 | Fold Change (Gene C34F11.3, Affy_ID 189114_at): 0.4428 | Fold Change (Gene C34F11.4, Affy_ID 172885_x_at): 0.1632 | Fold Change (Gene C34F11.6, Affy_ID 172896_x_at): 0.1976 | Fold Change (Gene C35A5.6, Affy_ID 179396_at): 0.1353 | Fold Change (Gene C35D10.11, Affy_ID 172630_x_at): 0.1209 | Fold Change (Gene C44C8.6, Affy_ID 189233_s_at): 0.3734 | Fold Change (Gene C49F5.1, Affy_ID 174812_at): 0.237 | Fold Change (Gene C50F7.5, Affy_ID 183381_at): 0.3778 | Fold Change (Gene CTEL54X.1, Affy_ID 185910_at): 0.2757 | Fold Change (Gene D1086.2, Affy_ID 177478_at): 0.1132 | Fold Change (Gene D1086.5, Affy_ID 177666_at): 0.2318 | Fold Change (Gene D2024.7, Affy_ID 187178_s_at): 0.4973 | Fold Change (Gene D2045.8, Affy_ID 191879_at): 0.4257 | Fold Change (Gene D2089.3, Affy_ID 178891_at): 0.3977 | Fold Change (Gene F02D8.4, Affy_ID 189325_at): 0.3853 | Fold Change (Gene F07A11.5, Affy_ID 188623_at): 0.4237 | Fold Change (Gene F08B6.4, Affy_ID 171924_x_at): 0.4112 | Fold Change (Gene F08G2.1, Affy_ID 192280_s_at): 0.181 | Fold Change (Gene F53A9.8, Affy_ID 180612_s_at): 0.2385 | Fold Change (Gene F53F4.13, Affy_ID 182491_at): 0.306 | Fold Change (Gene F54F11.2, Affy_ID 191753_at): 0.2877 | Fold Change (Gene F55F3.2, Affy_ID 189534_at): 0.2425 | Fold Change (Gene F55G1.3, Affy_ID 172702_x_at): 0.3727 | Fold Change (Gene F58A4.7, Affy_ID 171841_x_at): 0.2717 | Fold Change (Gene F58A6.8, Affy_ID 172889_x_at): 0.1742 | Fold Change (Gene F58A6.9, Affy_ID 172743_x_at): 0.2732 | Fold Change (Gene F58B3.1, Affy_ID 178236_s_at): 0.3338 | Fold Change (Gene F58G1.4, Affy_ID 177978_at): 0.2272 | Fold Change (Gene F59B2.5, Affy_ID 187071_at): 0.4863 | Fold Change (Gene H02I12.6, Affy_ID 172891_x_at): 0.4113 | Fold Change (Gene H12C20.3, Affy_ID 192782_at): 0.1769 | Fold Change (Gene H12D21.1, Affy_ID 172431_x_at): 0.176 | Fold Change (Gene H36L18.2, Affy_ID 179787_at): 0.4486 | Fold Change (Gene K02C4.2, Affy_ID 178299_at): 0.2893 | Fold Change (Gene K02D7.1, Affy_ID 189003_s_at): 0.4157 | Fold Change (Gene K03H1.10, Affy_ID 179875_at): 0.3898 | Fold Change (Gene K03H6.2, Affy_ID 183309_at): 0.3456 | Fold Change (Gene K05F1.2, Affy_ID 172815_x_at): 0.2488 | Fold Change (Gene K05F1.7, Affy_ID 172904_x_at): 0.1812 | Fold Change (Gene K06C4.12, Affy_ID 172685_x_at): 0.3916 | Fold Change (Gene K07E8.3, Affy_ID 180256_at): 0.04574 | Fold Change (Gene K07F5.2, Affy_ID 172852_x_at): 0.1696 | Fold Change (Gene K07F5.3, Affy_ID 172907_x_at): 0.1824 | Fold Change (Gene K07F5.5, Affy_ID 172245_x_at): 0.3189 | Fold Change (Gene K08F4.8, Affy_ID 172934_x_at): 0.1666 | Fold Change (Gene K08F8.4, Affy_ID 193649_s_at): 0.4028 | Fold Change (Gene K10F12.4, Affy_ID 185815_at): 0.3079 | Fold Change (Gene M01D7.5, Affy_ID 173242_s_at): 0.2324 | Fold Change (Gene M05D6.7, Affy_ID 193914_at): 0.3025 | Fold Change (Gene M6.1, Affy_ID 193073_at): 0.2608 | Fold Change (Gene M18.1, Affy_ID 173632_s_at): 0.1786 | Fold Change (Gene M163.1, Affy_ID 177298_at): 0.4161 | Fold Change (Gene R01E6.3, Affy_ID 189628_at): 0.3449 | Fold Change (Gene R03E9.1, Affy_ID 193723_s_at): 0.1079 | Fold Change (Gene R04B5.9, Affy_ID 191440_at): 0.2481 | Fold Change (Gene R05F9.3, Affy_ID 172725_x_at): 0.3857 | Fold Change (Gene R05F9.8, Affy_ID 172724_x_at): 0.1853 | Fold Change (Gene R05G6.10, Affy_ID 192058_at): 0.3689 | Fold Change (Gene R07B1.3, Affy_ID 190822_s_at): 0.3753 | Fold Change (Gene R12C12.1, Affy_ID 190616_at): 0.3455 | Fold Change (Gene R12E2.9, Affy_ID 180698_s_at): 0.2329 | Fold Change (Gene R52.3, Affy_ID 177369_at): 0.433 | Fold Change (Gene T01C3.4, Affy_ID 188106_at): 0.01178 | Fold Change (Gene T01D3.6, Affy_ID 194060_s_at): 0.3484 | Fold Change (Gene T02B11.3, Affy_ID 174051_s_at): 0.4315 | Fold Change (Gene T03D8.2, Affy_ID 190280_at): 0.4443 | Fold Change (Gene T07C4.4, Affy_ID 178149_s_at): 0.4269 | Fold Change (Gene T07G12.5, Affy_ID 188496_s_at): 0.1018 | Fold Change (Gene T08B1.6, Affy_ID 192296_at): 0.1305 | Fold Change (Gene T08B2.12, Affy_ID 184685_s_at): 0.1145 | Fold Change (Gene T09F5.9, Affy_ID 188947_at): 0.2413 | Fold Change (Gene T15B7.9, Affy_ID 182858_at): 0.3683 | Fold Change (Gene T19H5.4, Affy_ID 186755_s_at): 0.3412 | Fold Change (Gene T20B3.2, Affy_ID 188278_s_at): 0.3943 | Fold Change (Gene T20D4.11, Affy_ID 184438_at): 0.05764 | Fold Change (Gene T20G5.7, Affy_ID 172218_x_at): 0.3082 | Fold Change (Gene T22H2.6, Affy_ID 180962_s_at): 0.3753
